Measured values reported in patent US9278947B2, “Serotonin reuptake inhibitors as drugs having peripheral-system-restricted activity” (priority 2006, dated 2016).
Read-outs that look alike come from different tables or passages of the source. Marks after values point to notes of the source that are not given here.

Key:
[1] = reported in reference [1]; cited from earlier work
mice [2] = experiment: Tail bleeding time in chronically treated mice; assay type: in vivo; settings: for Mean (n = 4) of mean bleeding time: mean over experiments (different doses)
Method: The anti-thrombotic effects of a drug can be evaluated in mice through a bleeding time experiment. Mice were treated by the tested drugs for two weeks, then anesthetized and placed on a warming pad before a segment of their tail was amputated. The tail was immersed in 0.9% isotonic saline at 37° C., and the time required for the stream of blood to stop was defined as the bleeding time. Different cuts and drug doses were tested. Control mice were administered either DDW (p.o) or saline (i.p). In some experiments (Nos. 5 and 6), half of the mice were administered DDW and half saline.

mice [3] = experiment: Collagen-epinephrine induced acute pulmonary thromboembolism in mice; assay type: in vivo; settings: for death or paralysis after collagen-epinephrine injection versus control group: chronic treatment: aspirin 70 mg/kg, citalopram 10 mg/kg, NMC 10 mg/kg; for Number of mice who died: died or paralyzed after collagen-epinephrine into tail vein; for % death: died or paralyzed; for Mean % death ± S.E.M: mean of 3 experiments
Method: An experimental model of acute pulmonary thromboembolism was induced in mice by injecting a mixture of collagen (0.5 mg/kg) and epinephrine (0.5 mg/kg). […] The injection was followed by a massive activation of circulating platelets and the widespread formation of platelet thrombi in the microcirculation of the lungs leading to disseminated pulmonary microembolism and paralysis of the animal.

[4] = tested on: [^3H]noradrenaline uptake into rat brain synaptosomes; experiment: [^3H]noradrenaline uptake by rat brain synaptosomes; assay type: biochemical; settings: for inhibition of [^3H]noradrenaline uptake: at 8.5 nM
Method: (§1) [^3H]dopamine and [^3H]noradrenaline uptake assays were carried out in synaptosomes from rat brain cortex. After a 10 minutes pre-incubation period at 37° C., [^3H]dopamine or [^3H]noradrenaline were added to the tubes containing synaptosomes and tested drugs. The reactions were stopped after four minutes by rapid cooling on ice. Specific uptake was defined as the difference between total uptake at 37° C. (triplicate samples) and the uptake measured at 0° C. (duplicate samples). Three separate experiments were performed.

[5] = tested on: [^3H]dopamine uptake into rat brain synaptosomes; experiment: [^3H]dopamine uptake by rat brain synaptosomes; assay type: biochemical; settings: for inhibition of [^3H]dopamine uptake: at 45 nM
Method: as §1

[6] = Experiment No. 1, 70 mg/kg for two weeks
[7] = Experiment No. 2, 70 mg/kg for two weeks
[8] = Experiment No. 3, 70 mg/kg for two weeks
[9] = 3 mm tail amputation, Experiment No. 3, CJ57/black, 2 mg/kg p.o., two weeks
[10] = 3 mm tail amputation, Experiment No. 5, ICR, 10 mg/kg i.p., two weeks
[11] = Experiment No. 1, 10 mg/kg for two weeks
[12] = Experiment No. 2, 10 mg/kg for two weeks
[13] = Experiment No. 3, 10 mg/kg for two weeks
[14] = 10 mg/kg for two weeks (control 72 ± 2)

| Compound | reduction of MI risk [1] [%] | Mean (n = 4) of mean bleeding time (mice [2]; 3 mm tail amputation) [s] | death or paralysis after collagen-epinephrine injection versus control group (mice [3]) | Mean bleeding time (mice [2]; [9]) [s] | Mean bleeding time (mice [2]; [10]) [s] | inhibition of [^3H]noradrenaline uptake [4] | inhibition of [^3H]dopamine uptake [5] | Number of mice who died (mice [3]; [11]) | Number of mice who died (mice [3]; [12]) | Number of mice who died (mice [3]; [13]) | % death (mice [3]; [11]) [%] | % death (mice [3]; [12]) [%] | % death (mice [3]; [13]) [%] | Mean % death ± S.E.M (mice [3]; [14]) | other results |
| --- | --- | --- | --- | --- | --- | --- | --- | --- | --- | --- | --- | --- | --- | --- | --- |
| CC(=O)Oc1ccccc1C(=O)O [Aspirin] | 20 | 288 | significantly less prone to die or to be paralyzed |  |  |  |  |  |  |  |  |  |  |  | Mean bleeding time (mice [2]; 3 mm tail amputation, Experiment No. 2, CJ57/black, 40 mg/kg p.o., two weeks): 389 s; Mean bleeding time (mice [2]; 3 mm tail amputation, Experiment No. 3, CJ57/black, 40 mg/kg p.o., two weeks): 230 s; Mean bleeding time (mice [2]; 3 mm tail amputation, Experiment No. 4, CJ57/black, 70 mg/kg p.o., two weeks): 394 s; Mean bleeding time (mice [2]; 3 mm tail amputation, Experiment No. 5, ICR, 70 mg/kg p.o., two weeks): 145 s; Mean bleeding time (mice [2]; 4 mm tail amputation, Experiment No. 6, ICR, 40 mg/kg p.o.): 221 s; Mean bleeding time (mice [2]; amputation where tail diameter is 2 mm, Experiment No. 1, CJ57/black, 40 mg/kg p.o.): 233 s; Number of mice who died (mice [3]; [6]): 5/10; Number of mice who died (mice [3]; [7]): 5/12; Number of mice who died (mice [3]; [8]): 3/11; % death (mice [3]; [6]): 50%; % death (mice [3]; [7]): 42%; % death (mice [3]; [8]): 27%; Mean % death ± S.E.M (mice [3]; 70 mg/kg for two weeks (control 72 ± 2)): 40^a ± 7^ % |
| CN(C)CCCC1(c2ccc(F)cc2)OCc2cc(C#N)ccc21 (stereo not shown) [Citalopram, 1-(3-Dimethylamino-propyl)-1-(4-fluoro-phenyl)-1,3-dihydro-isobenzofuran-5-carbonitrile] |  | 171 | did not cause a significant improvement | 179 | 66 | did not have any effect | did not inhibit | 7/9 | 8/13 | 7/10 | 78 | 61 | 70 | 70 ± 5% | Mice behavior following injections, day 1 (ICR mice; 30 mg/day i.p., ICR mice, observed 1 hour): normal; Mice behavior following injections, day 3 (ICR mice; 100 mg/day i.p., ICR mice, observed 1 hour): looks weak |
| C[N+](C)(C)CCCC1(c2ccc(F)cc2)OCc2cc(C#N)ccc21 (stereo not shown) [NMC, N-methyl-citalopram] |  | 191 | significant decrease in death or paralysis | 150 | 124 | less than 20% | less than 10% | 6/8 | 4/13 | 6/14 | 75 | 31 | 43 | 50^b ± 10% | dose at which not lethal to mice (ICR mice; i.p., mice): less than 50 mg/kg; Mice behavior following injections, day 1 (ICR mice; mouse, in vivo, ip): normal; Mice behavior following injections, day 2 (ICR mice; mouse, in vivo, ip): normal; Mice behavior following injections, day 3 (ICR mice; mouse, in vivo, ip): normal; doses that can be toxic (ICR mice; mouse, in vivo, ip): above 50 mg/kg |
| COC(=O)[C@H](c1ccccc1Cl)N1CCc2sccc2C1 [clopidogrel] | 10 |  |  |  |  |  |  |  |  |  |  |  |  |  |  |
| OC1(c2ccc(Cl)cc2)c2ccccc2C2=NCCN21 (stereo not shown) [mazindol] |  |  |  |  |  |  |  |  |  |  |  |  |  |  | IC50 ([4]; rat brain synaptosomes, read-out: concentration inhibiting [^3H]noradrenaline uptake by 50%): 0.0085 µM; IC50 ([5]; rat brain synaptosomes, read-out: concentration inhibiting [^3H]dopamine uptake by 50%): 0.045 µM |
